# Where a name gives a salt, the structure may show the parent alone.
# How the values were obtained:
# [1] = target: T1, ACAT (Oryctolagus cuniculus, UniProt G1SFD9); experiment: Test of ACAT Inhibitory Activity (rabbit small intestinal microsome fraction); assay type: biochemical; conditions: rabbit small intestinal microsomes, [1-14C]oleyl coenzyme, pH 7.4, 37° C., 6 minutes
# T1 construct: A microsome fraction of a rabbit small intestine prepared in a usual manner; from tissue; host or cells: rabbit small intestine, microsome fraction
# T1 sequence (G1SFD9 1-524): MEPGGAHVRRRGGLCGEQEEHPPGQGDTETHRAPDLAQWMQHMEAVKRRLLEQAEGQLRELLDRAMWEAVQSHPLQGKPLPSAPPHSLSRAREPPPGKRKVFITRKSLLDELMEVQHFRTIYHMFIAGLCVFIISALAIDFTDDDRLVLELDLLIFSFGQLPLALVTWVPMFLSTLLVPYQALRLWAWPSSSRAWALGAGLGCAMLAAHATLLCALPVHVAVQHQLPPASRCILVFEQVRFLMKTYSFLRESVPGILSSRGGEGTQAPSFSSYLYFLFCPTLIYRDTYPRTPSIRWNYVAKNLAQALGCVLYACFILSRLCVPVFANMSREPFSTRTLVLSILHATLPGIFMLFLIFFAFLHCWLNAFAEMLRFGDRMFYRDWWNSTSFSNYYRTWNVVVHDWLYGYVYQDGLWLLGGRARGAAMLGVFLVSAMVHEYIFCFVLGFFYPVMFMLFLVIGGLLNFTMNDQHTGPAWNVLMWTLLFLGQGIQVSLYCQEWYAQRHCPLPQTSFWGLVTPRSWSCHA
# Experimental: Test of ACAT Inhibitory Activity
# The test was carried out in accordance with the method described in J. Lipid Res., Vol. 22, p.
# A microsome fraction of a rabbit small intestine prepared in a usual manner was suspended in a 0.04N potassium phosphate buffer solution (pH 7.4) containing 0.1N sucrose, 0.03N ethylenediaminetetraacetic acid (EDTA), and 0.05N potassium chloride. Each drug to be tested was dissolved in dimethyl sulfoxide.
# The rabbit small intestinal microsome fraction suspension prepared above (250 μg as protein) and [1-^14 C]oleyl coenzyme were added to a 0.05N phosphate buffer solution (pH 7.4) containing 1% bovine serum albumin, followed by addition of a drug to be tested in a varied concentration. The total volume of the mixture was adjusted to 500 μl to prepare a sample. For control, a sample was prepared in the same manner, except for adding no test drug. The sample was incubated at 37° C. for 6 minutes, and the reaction was terminated by addition of a mixture of chloroform and methanol (mixing ratio=2:1). After stirring, the chloroform layer was collected and concentrated to dryness. […] A gel portion corresponding to cholesterol oleate was scraped, and its radioactivity was measured with a liquid scintillation counter (LSC-3000, manufactured by Aloka Co., Ltd.). Percent inhibition on ACAT activity was calculated using the following equation to obtain an IC50 value. [formula]
# [2] = tested on: Normal Rat; experiment: Test of Lipid Reduction in Normal Rat; assay type: in vivo, rat (male Wister); conditions: oral 100 mg/kg for 3 days; for Cholesterol in High Density Lipoprotein, Percent Change / Cholesterol in Low Density Lipoprotein, Percent Change / Total Cholesterol in Serum, Percent Change / Total Triglyceride in Serum, Percent Change: compared with the control; for Cholesterol in High Density Lipoprotein, Measured Value / Cholesterol in Low Density Lipoprotein, Measured Value / Total Cholesterol in Serum, Measured Value / Total Triglyceride in Serum, Measured Value: fasted 18 hours
# Experimental: Test of Lipid Reduction in Normal Rat
# Five 5-week-old male Wister rats per group were used as test animals. Each test drug was orally administered to the rat at a dose of 100 mg/kg for 3 days. A blood sample was taken from the rat having been deprive of food for 18 hours from the final administration, and the serum was separated. A total cholesterol value and a total triglyceride value were measured with an autoanalyzer (Hitachi 7150) in accordance with an enzyme method (Autosera, manufactured by Daiichi Kagaku K.K.). Lipoprotein was separated by a precipitation method (HDL-C.2, manufactured by Daiichi Kagaku K.K.), and the cholesterol in the lipoprotein was determined by an enzyme method. Five ml/kg of each test drug suspended in a 0.2% aqueous solution of sodium carboxymethyl cellulose was administered. For control, the same sodium carboxymethyl cellulose solution containing no test drug was administered.
# Note: "Percent change" in Tables 2 and 3 is a rate of change in the respective cholesterol value compared with the control.
IC50 [1],SMILES,further results
10 to 100 nM,"CC(C)c1cccc(C(C)C)c1NC(=O)CSCCCCCCN1CCN(c2ccccn2)CC1 [Compound 5, N-(2,6-Diisopropylphenyl)-2-{6-[4-(2pyridyl)piperazinyl]hexylthio}acetamide]",–
10 to 100 nM,"CC(C)c1cccc(C(C)C)c1NC(=O)CSCCCCCCCCCN1CCN(c2ccccc2)CC1 [Compound 22, N-(2,6-Diisopropylphenyl)-2-[9-(4-phenylpiperazinyl)nonylthio]acetamide]",–
10 to 100 nM,"CC(C)c1cccc(C(C)C)c1NC(=O)CSCCCCCCN1CCN(c2ncccn2)CC1 [Compound 6, N-(2,6-Diisopropylphenyl)-2-{6-[4-(2-pyrimidyl)piperazinyl]hexylthio}acetamide]",–
10 to 100 nM,"CC(C)c1cccc(C(C)C)c1NC(=O)CSCCCN1CCN(c2ccccc2)CC1 [Compound 18, N-(2,6-Diisopropylphenyl)-2-[3-(4-phenylpiperazinyl)propylthio]acetamide dihydrochloride]",–
10 to 100 nM,"CC(C)c1cccc(C(C)C)c1NC(=O)CSCCN1CCN(c2ccccc2)CC1 [Compound 17, N-(2,6-Diisopropylphenyl)-2-[2-(4-phenylpiperazinyl)ethylthio]acetamide dihydrochloride]",–
10 to 100 nM,"CC(C)c1cccc(C(C)C)c1NC(=O)CSCCCCCCCCCCN1CCN(c2ccccc2)CC1 [Compound 23, N-(2,6-Diisopropylphenyl)-2-[10-(4-phenylpiperazinyl)decylthio]acetamide]",–
10 to 100 nM,"CC(C)c1cccc(C(C)C)c1NC(=O)CSCCCCCCCN1CCN(c2ccccc2)CC1 [Compound 25, N-(2,6-Diisopropylphenyl)-2-[7-(4-phenylpiperazinyl)heptylthio]acetamide]",–
10 to 100 nM,"Cc1cccc(N2CCN(CCCCCCSCC(=O)Nc3c(C(C)C)cccc3C(C)C)CC2)c1 [Compound 8, N-(2,6-Diisopropylphenyl)-2-{6-[4-(3-methylphenyl)piperazinyl]hexylthio}acetamide]",–
10 to 100 nM,"CC(C)c1cccc(C(C)C)c1NC(=O)CSCCCCCCN1CCN(c2ccc(F)cc2)CC1 [Compound 11, N-(2,6-Diisopropylphenyl)-2-{6-[4-(4-fluorophenyl)piperazinyl]hexylthio}acetamide]",–
10 to 100 nM,"CC(C)c1cccc(C(C)C)c1NC(=O)CSCCCCN1CCN(c2ccccc2)CC1 [Compound 19, N-(2,6-Diisopropylphenyl)-2-[4-(4-phenylpiperazinyl)butylthio]acetamide dihydrochloride]",–
10 to 100 nM,"CC(C)c1cccc(C(C)C)c1NC(=O)CSCCCCCCN1CCN(c2ccccc2Cl)CC1 [Compound 4, N-(2,6-Diisopropylphenyl)-2-{6-[4-(2-chlorophenyl)piperazinyl]hexylthio}acetamide]",–

# Second part, the compound before the results:
SMILES,IC50 [1],further results
"CC(C)c1cccc(C(C)C)c1NC(=O)CSCCCCCCN1CCN(c2ccc(Cl)cc2)CC1 [Compound 16, N-(2,6-Diisopropylphenyl)-2-{6-[4-(4-chlorophenyl)piperazinyl]hexylthio}acetamide]",10 to 100 nM,–
"COc1ccc(N2CCN(CCCCCCSCC(=O)Nc3c(C(C)C)cccc3C(C)C)CC2)cc1 [Compound 3, N-(2,6-Diisopropylphenyl)-2-{6-[4-(4methoxyphenyl)piperazinyl]hexylthio}acetamide]",10 to 100 nM,–
"COc1ccccc1N1CCN(CCCCCCSCC(=O)Nc2c(C(C)C)cccc2C(C)C)CC1 [Compound 2, N-(2,6-Diisopropylphenyl)-2-{6-[4-(2-methoxyphenyl)piperazinyl]hexylthio}acetamide dihydrochloride]",10 to 100 nM,–
"CC(C)c1cccc(C(C)C)c1NC(=O)CSCCCCCCN1CCN(c2ccccc2[N+](=O)[O-])CC1 [Compound 12, N-(2,6-Diisopropylphenyl)-2-{6-[4-(2-nitrophenyl)piperazinyl]hexylthio}acetamide]",10 to 100 nM,–
"CC(C)c1cccc(C(C)C)c1NC(=O)CSCCCCCCN1CCN(c2cccc(C(F)(F)F)c2)CC1 [Compound 10, N-(2,6-Diisopropylphenyl)-2-{6-[4-(3-trifluoromethylphenyl)piperazinyl]hexylthio}acetamide]",10 to 100 nM,–
"Cc1ccccc1N1CCN(CCCCCCSCC(=O)Nc2c(C(C)C)cccc2C(C)C)CC1 [Compound 9, N-(2,6-Diisopropylphenyl)-2-{6-[4-(2-methylphenyl)piperazinyl]hexylthio}acetamide fumarate]",10 to 100 nM,–
"CC(C)c1cccc(C(C)C)c1NC(=O)CSCCCCCCN1CCN(c2cc(Cl)ccn2)CC1 [Compound 15, N-(2,6-Diisopropylphenyl)-2-{6-[4-(4-chloro-2-pyridyl)piperazinyl]hexylthio}acetamide]",10 to 100 nM,–
"CC(C)c1cccc(C(C)C)c1NC(=O)CSCCCCCCCCN1CCN(c2ccccc2)CC1 [Compound 21, N-(2,6-Diisopropylphenyl)-2-[8-(4-phenylpiperazinyl)octylthio]acetamide]",1 to 10 nM,–
"CCCCCCCCCCC(C)(C)C(=O)Nc1c(OC)cc(OC)cc1OC [Compound B, N-(2,4,6-Trimethoxyphenyl)-2,2-dimethyldodecylamide, reference compound]",–,"Cholesterol in High Density Lipoprotein, Percent Change [2]: 15.5%; Cholesterol in Low Density Lipoprotein, Percent Change [2]: 0.0%; Total Cholesterol in Serum, Percent Change [2]: 7.1%; Total Triglyceride in Serum, Percent Change [2]: 18.8%; Cholesterol in High Density Lipoprotein, Measured Value [2]: 51.4 ± 2.2 mg/dL; Cholesterol in Low Density Lipoprotein, Measured Value [2]: 11.8 ± 5.1 mg/dL; Total Cholesterol in Serum, Measured Value [2]: 63.2 ± 3.1 mg/dL; Total Triglyceride in Serum, Measured Value [2]: 108.0 ± 5.1 mg/dL"
"CC(C)c1cccc(C(C)C)c1NC(=O)CSCCCCCCCCCCCCN1CCN(c2ccccc2)CC1 [Compound 24, N-(2,6-Diisopropylphenyl)-2-[12-(4-phenylpiperazinyl)dodecylthio]acetamide]",10 to 100 nM,–
"CC(C)c1cccc(C(C)C)c1NC(=O)CSCCCCCCN1CCN(c2cccc(C(F)(F)F)n2)CC1 [Compound 14, N-(2,6-Diisopropylphenyl)-2-{6-[4-(6-trifluoromethyl-2-pyridyl)piperazinyl]hexylthio}acetamide]",10 to 100 nM,–
"CC(C)c1cccc(C(C)C)c1NC(=O)CSCCCCCCN1CCN(c2cccc(Cl)c2)CC1 [Compound 7, N-(2,6-Diisopropylphenyl)-2-{6-[4-(3-chlorophenyl)piperazinyl]hexylthio}acetamide]",10 to 100 nM,–
"CC(C)c1cccc(C(C)C)c1NC(=O)CSCCCCCCN1CCN(c2ccccc2)CC1 [Compound 1, N-(2,6-Diisopropylphenyl)-2-[6-(4-phenylpiperazinyl)hexylthio]acetamide]",10 to 100 nM,"Cholesterol in High Density Lipoprotein, Percent Change [2]: 3.4%; Cholesterol in Low Density Lipoprotein, Percent Change [2]: -50.8%; Total Cholesterol in Serum, Percent Change [2]: -12.2%; Total Triglyceride in Serum, Percent Change [2]: -41.6%; Cholesterol in High Density Lipoprotein, Measured Value [2]: 46.0 ± 1.7 mg/dL; Cholesterol in Low Density Lipoprotein, Measured Value [2]: 5.8 ± 2.0 mg/dL; Total Cholesterol in Serum, Measured Value [2]: 51.8 ± 3.2 mg/dL; Total Triglyceride in Serum, Measured Value [2]: 51.6 ± 2.7 mg/dL"

# From US5416212A, “Anilide derivatives” (Taisho Pharmaceutical Co., Ltd., priority 1991, dated 1995)
